Laboratory results reported in ChEMBL document CHEMBL1201862, “PubChem BioAssay data set” (2004).
Calls of active or inactive are those of the source.

Assays:
[1] = A cytotoxicity screen of small molecule inhibitors of the PhoP region in Salmonella typhi identified in the primary screen. [Related pubchem assays: 1850, 1864, 1985 ]; assay type: functional
[2] = biological target: Paired box protein Pax-8 (Homo sapiens, UniProt Q06710); assay: inhibitors of PAX8-driven TPO luciferase reporter, dose response, RMG-I cells, cherry-pick (AID 687027); assay type: functional, cell-based;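 also: luciferase reporter driven by Pax8 target thyroperoxidase promoter measured by SteadyGlo luminescence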
Paired box protein Pax-8, sequence (Q06710 whole entry): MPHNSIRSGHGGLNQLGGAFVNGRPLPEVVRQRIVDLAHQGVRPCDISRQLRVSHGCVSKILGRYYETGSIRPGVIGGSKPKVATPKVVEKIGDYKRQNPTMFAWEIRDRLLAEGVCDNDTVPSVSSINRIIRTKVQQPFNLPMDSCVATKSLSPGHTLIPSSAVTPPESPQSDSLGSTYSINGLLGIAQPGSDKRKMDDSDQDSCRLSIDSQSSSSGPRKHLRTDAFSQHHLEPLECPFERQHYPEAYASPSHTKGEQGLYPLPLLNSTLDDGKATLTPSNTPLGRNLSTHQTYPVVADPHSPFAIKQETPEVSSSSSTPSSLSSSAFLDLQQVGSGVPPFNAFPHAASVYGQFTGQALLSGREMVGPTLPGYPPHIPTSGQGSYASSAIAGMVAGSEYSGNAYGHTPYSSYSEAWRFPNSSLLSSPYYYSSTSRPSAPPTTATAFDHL

[3] = NIH:OVCAR-3 ovarian cancer cell cytotoxicity, dose response, PAX8 inhibitor project, plate reader, dry powder samples (AID 743044); assay type: functional, cell-based
[4] = IGROV1 ovarian cancer cell cytotoxicity, dose response, PAX8 inhibitor project, plate reader, dry powder samples (AID 743043); assay type: functional, cell-based; details: IGROV-1
[5] = cytotoxicity in OVCAR8 ovarian cancer cells, dose response, PAX8 project, cell-based, plate reader, dry powder samples (AID 743197); assay type: functional; details: OVCAR-8
[6] = NIH-3T3 fibroblast cytotoxicity, dose response, cytotoxicity control, cell-based, fluorescence, Alamar Blue, secondary assay (AID 2327); assay type: functional;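 also: NIH-3T3 mouse fibroblasts cultured with fluconazole at 8 µg/mL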
[7] = C. albicans growth with fluconazole, confirmation, fluorescence, retest (AID 2467); assay type: functional, cell-based
[8] = inhibitors of intracellular T. cruzi replication, confirmation, NIH3T3 host cells, beta-gal luminescence (AID 2044); assay type: functional, cell-based;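 also: intracellular parasites grown in NIH/3T3 mouse fibroblasts as host cells; luminescent beta-galactosidase reporter signal from transgenic T. cruzi replicating inside host cells; inhibitors lower the luminescence signal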
[9] = cells
[10] = inhibitors of clade B AD8 Env fusion, dose response, cell-based, cherry-pick (AID 652062); assay type: functional;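 also: luciferase signal from cell-cell fusion driven by HIV-1 clade B AD8 Env; potency is for inhibitors of fusion seen as a drop in luminescence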
[11] = cytotoxicity toward NIH3T3 fibroblasts, dose response, counter-screen, cell-based, ATP luminescence, mouse fibroblasts (AID 2010); assay type: functional;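 also: cells exposed to compound for about 90 hours before reading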
[12] = biological target: Voltage-gated inwardly rectifying potassium channel KCNH2 (Homo sapiens, UniProt Q12809); details: Potency;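 also: confirmatory quantitative high-throughput screen measuring inhibition of hERG channel activity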
[13] = biological target: Cytochrome P450 3A4 (Homo sapiens, UniProt P08684); details: Potency;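 also: confirmatory qHTS run detecting inhibitors and substrates of CYP3A4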
Cytochrome P450 3A4, sequence (P08684 whole entry): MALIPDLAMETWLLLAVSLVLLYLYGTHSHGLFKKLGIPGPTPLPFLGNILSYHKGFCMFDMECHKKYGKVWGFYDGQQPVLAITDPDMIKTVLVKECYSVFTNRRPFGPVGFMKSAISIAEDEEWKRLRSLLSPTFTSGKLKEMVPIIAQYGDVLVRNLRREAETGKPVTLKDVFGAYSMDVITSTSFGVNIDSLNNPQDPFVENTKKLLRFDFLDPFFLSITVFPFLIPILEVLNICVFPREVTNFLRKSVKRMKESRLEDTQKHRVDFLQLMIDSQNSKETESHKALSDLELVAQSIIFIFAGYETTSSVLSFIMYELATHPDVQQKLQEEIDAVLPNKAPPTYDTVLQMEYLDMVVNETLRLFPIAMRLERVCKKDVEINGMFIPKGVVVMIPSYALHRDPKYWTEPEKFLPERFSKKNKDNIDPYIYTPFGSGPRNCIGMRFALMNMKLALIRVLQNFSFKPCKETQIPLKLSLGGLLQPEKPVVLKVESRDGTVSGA

[14] = biological target: T1, Voltage-gated N-type calcium channel alpha-1B subunit/Amyloid beta A4 precursor protein-binding family A member 1 (Homo sapiens, UniProt Q00975+Q02410); assay type: protein assay
T1 sequence (Q00975 whole entry): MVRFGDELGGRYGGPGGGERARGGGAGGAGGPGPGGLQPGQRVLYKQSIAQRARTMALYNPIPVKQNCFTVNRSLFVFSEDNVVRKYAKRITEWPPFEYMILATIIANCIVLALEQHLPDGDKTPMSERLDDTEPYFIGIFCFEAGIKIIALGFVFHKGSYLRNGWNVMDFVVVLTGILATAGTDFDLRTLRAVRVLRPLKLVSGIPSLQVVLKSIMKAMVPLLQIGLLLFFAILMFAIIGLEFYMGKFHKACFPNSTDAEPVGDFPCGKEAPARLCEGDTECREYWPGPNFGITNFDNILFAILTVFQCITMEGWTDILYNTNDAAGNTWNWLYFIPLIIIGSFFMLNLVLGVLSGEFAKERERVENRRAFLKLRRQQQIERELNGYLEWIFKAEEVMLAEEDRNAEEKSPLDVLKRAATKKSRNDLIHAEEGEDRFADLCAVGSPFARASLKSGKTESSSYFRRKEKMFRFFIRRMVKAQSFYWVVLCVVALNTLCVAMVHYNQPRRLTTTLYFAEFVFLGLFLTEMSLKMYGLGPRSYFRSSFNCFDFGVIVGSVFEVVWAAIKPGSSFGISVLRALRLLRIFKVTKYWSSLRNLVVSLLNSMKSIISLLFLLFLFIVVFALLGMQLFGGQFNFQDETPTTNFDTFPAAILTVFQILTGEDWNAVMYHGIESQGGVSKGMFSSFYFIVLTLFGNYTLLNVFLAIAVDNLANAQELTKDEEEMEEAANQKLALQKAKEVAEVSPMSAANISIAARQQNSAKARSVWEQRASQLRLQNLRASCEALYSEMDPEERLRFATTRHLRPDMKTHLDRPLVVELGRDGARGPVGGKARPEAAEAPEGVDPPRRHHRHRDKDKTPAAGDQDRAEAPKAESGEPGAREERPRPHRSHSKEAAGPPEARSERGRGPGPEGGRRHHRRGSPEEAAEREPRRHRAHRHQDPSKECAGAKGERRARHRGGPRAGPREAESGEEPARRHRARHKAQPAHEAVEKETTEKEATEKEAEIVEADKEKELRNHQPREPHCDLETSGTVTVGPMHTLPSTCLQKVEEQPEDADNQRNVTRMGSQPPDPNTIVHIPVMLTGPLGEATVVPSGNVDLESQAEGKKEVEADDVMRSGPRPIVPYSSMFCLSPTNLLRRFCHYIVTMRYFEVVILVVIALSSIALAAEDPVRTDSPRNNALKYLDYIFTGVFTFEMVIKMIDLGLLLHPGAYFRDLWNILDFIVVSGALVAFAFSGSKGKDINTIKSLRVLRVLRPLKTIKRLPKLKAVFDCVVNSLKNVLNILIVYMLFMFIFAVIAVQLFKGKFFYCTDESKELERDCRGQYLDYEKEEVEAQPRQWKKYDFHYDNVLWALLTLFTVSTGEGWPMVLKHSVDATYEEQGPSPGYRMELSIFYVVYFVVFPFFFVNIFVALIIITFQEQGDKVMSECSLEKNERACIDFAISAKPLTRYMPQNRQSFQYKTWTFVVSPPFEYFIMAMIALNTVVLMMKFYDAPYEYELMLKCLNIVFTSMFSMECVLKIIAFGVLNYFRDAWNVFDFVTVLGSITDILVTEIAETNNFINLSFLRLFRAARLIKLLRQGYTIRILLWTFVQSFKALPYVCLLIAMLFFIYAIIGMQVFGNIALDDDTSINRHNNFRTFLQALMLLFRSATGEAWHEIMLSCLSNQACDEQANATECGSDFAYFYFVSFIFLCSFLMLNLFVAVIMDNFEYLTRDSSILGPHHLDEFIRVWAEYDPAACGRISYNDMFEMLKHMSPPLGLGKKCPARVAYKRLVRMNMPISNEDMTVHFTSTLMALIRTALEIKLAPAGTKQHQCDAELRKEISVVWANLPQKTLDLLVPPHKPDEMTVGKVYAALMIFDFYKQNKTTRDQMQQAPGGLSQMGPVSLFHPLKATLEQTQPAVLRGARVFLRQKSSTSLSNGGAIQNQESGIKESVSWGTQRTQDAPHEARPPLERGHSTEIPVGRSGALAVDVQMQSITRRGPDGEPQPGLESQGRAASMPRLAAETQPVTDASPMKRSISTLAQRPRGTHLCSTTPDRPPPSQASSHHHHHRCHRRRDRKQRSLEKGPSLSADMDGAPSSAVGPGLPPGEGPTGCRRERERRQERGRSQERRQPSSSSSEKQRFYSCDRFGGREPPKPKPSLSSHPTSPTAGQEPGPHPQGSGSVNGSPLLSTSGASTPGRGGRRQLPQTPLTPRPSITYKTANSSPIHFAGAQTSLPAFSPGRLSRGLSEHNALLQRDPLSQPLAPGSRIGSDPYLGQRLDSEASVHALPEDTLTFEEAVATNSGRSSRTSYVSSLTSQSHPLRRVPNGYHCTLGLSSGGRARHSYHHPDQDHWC
T1 sequence (Q02410 whole entry): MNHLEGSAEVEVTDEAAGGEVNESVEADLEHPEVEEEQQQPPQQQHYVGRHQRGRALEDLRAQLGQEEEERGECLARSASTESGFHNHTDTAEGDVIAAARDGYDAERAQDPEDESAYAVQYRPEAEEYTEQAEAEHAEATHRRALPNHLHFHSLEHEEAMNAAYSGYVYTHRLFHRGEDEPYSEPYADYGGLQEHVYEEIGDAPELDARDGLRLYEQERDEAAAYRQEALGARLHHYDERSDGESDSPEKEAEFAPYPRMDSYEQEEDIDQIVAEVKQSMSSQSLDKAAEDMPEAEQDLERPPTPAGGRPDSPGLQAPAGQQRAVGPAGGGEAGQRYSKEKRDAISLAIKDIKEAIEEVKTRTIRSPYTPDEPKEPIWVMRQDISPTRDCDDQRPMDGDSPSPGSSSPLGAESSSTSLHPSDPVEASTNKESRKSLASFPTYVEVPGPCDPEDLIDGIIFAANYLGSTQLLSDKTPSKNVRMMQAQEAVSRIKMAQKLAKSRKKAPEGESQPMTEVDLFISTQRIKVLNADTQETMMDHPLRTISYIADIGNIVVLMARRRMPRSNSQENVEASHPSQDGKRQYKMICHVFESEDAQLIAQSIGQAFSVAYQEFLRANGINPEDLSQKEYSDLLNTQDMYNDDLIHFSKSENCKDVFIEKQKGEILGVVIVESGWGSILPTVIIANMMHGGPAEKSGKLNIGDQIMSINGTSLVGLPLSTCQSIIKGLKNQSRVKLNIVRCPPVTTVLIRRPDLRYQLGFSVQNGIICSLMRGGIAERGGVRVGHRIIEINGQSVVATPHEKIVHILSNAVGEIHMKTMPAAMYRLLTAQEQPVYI

[15] = biological target: T1, Voltage-gated N-type calcium channel alpha-1B subunit/Amyloid beta A4 precursor protein-binding family A member 1; assay type: protein assay; remark: listed apart in the source
[16] = system: H9c2; assay: cells; assay type: functional, cell-based; details: Rattus norvegicus, H9c2, Myocardium;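 also: confirmatory concentration-response retest of ultra-high-throughput screening hits for modulation of myocardial damage; cell death induced by hydrogen peroxide oxidative stress; compound pretreatment for 60 min then peroxide exposure for 2 h; potency is for protecting the cells against peroxide damage rather than for killing them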
[17] = biological target: T2, Probable nicotinate-nucleotide adenylyltransferase (Staphylococcus aureus (strain N315), UniProt P65502); assay type: functional, Staphylococcus aureus subsp. aureus N315;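 as to IC50 Mean: confirmatory dose-response retesting of NadD inhibitor hits first found in an ultra-high-throughput screen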
T2 sequence (P65502 whole entry): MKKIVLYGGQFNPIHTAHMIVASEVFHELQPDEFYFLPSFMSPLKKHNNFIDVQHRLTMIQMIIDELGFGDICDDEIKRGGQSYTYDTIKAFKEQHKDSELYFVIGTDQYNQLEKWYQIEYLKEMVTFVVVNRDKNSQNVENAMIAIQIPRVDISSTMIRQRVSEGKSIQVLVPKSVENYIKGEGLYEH

[18] = biological target: T2, Probable nicotinate-nucleotide adenylyltransferase; assay type: functional, Staphylococcus aureus subsp. aureus N315; details: read-out: IC50_Mean
[19] = biological target: T3, Caspase-6 (Homo sapiens, UniProt P55212); assay: human caspase-6 inhibitors, dose response, biochemical, VEID-R110 fluorescence, cherry-pick (AID 720632)
T3 sequence (P55212 whole entry): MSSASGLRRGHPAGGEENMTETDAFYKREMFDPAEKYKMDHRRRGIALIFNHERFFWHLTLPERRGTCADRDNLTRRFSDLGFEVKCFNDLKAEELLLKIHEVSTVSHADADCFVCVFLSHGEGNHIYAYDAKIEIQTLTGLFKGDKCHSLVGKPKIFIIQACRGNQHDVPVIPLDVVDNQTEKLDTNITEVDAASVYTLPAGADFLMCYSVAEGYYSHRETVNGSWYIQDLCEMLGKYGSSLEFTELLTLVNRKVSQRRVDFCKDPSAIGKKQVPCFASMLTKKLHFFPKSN

[20] = biological target: Dual specificity tyrosine-phosphorylation-regulated kinase 1A (Rattus norvegicus, UniProt Q63470); assay type: biochemical, Homo sapiens
[21] = HeLa cell cytotoxicity, dose response, cytotoxicity control for MgcRacGAP inhibitor project (AID 624300); assay type: functional
[22] = biological target: T4, Rac GTPase-activating protein 1 (Homo sapiens, UniProt Q9H0H5); assay: MgcRacGAP GTPase-activating activity inhibitors, confirmation, biochemical, ADP Hunter fluorescence, primary and confirmatory (AID 624330); assay type: functional
T4 sequence (Q9H0H5 whole entry): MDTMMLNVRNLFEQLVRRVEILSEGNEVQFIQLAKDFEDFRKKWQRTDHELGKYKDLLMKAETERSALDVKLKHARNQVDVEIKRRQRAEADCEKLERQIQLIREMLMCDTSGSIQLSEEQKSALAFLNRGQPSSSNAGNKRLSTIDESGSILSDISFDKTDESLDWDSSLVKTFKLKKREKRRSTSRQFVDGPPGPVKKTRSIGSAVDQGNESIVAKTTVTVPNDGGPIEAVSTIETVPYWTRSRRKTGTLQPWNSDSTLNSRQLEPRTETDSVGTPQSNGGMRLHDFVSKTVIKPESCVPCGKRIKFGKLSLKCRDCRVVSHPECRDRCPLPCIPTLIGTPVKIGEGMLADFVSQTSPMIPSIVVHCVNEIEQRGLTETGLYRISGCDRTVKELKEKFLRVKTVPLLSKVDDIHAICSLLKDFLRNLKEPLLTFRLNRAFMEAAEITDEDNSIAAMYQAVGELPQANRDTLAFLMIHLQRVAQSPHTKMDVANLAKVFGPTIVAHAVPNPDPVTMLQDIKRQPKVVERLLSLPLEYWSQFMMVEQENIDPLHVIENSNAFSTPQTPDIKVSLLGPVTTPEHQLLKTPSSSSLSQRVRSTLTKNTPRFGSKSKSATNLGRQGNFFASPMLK

[23] = biological target: Beta-2 adrenergic receptor (Homo sapiens, UniProt P07550); assay: beta2AR agonists driving receptor internalization, dose response, cell-based, FAP fluorogen, flow cytometry, cherry pick 1 (AID 588763); assay type: functional
Beta-2 adrenergic receptor, sequence (P07550 whole entry): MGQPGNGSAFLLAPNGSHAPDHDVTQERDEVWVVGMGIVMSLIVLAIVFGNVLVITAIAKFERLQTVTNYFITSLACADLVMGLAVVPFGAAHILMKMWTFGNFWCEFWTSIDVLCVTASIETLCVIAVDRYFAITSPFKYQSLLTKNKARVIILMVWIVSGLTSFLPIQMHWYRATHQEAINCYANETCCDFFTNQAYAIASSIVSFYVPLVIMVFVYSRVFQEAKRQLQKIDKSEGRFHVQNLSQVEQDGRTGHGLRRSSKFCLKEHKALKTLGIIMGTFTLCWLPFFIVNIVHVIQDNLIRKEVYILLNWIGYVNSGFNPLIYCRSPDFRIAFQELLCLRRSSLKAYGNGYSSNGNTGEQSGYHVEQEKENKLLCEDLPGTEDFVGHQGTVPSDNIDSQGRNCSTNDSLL

## O=C(Nc1cccc(F)c1)NC1CCCCC1
[1]
  EC50: > 50 µM (active)

## CC(C)CC#Cc1ccc2c(c1)O[C@@H](CN(C)S(=O)(=O)c1ccc(F)cc1)[C@@H](C)CN([C@@H](C)CO)S2(=O)=O
[2]
  AC50: 12.9 µM (active)
[3]
  AC50: 25.9 µM (active)
[4]
  AC50: 51.5 µM (active)
[5]
  AC50: > 70 µM (inactive)

## C/C(CC(C)(C)C1CCCCC1)=N\NC(N)=S
[6]
  EC50: 2.86 µM (inconclusive)
[7]
  EC50: 2.9 µM (active)
[8]
  EC50: < 0.1 µM (active)
[9]
  EC50: 0.133 µM (active)

## Cc1ccccc1Cn1c(=O)n(CCCC(=O)NCc2ccco2)c(=O)c2ccccc21
[1]
  EC50: > 50 µM (active)

## CCCCS(=O)(=O)N1CCN(C(=O)C(=O)c2cccc(C(F)(F)F)c2)CC1
[10]
  AC50: 49.5 µM (active)

## C[C@H]1CCCCO[C@H](CN(C)C(=O)Nc2cccc3ccccc23)[C@@H](C)CN([C@@H](C)CO)C(=O)c2cc(NS(=O)(=O)c3ccc(F)cc3)ccc2O1
[2]
  AC50: 5.88 µM (active)
[4]
  AC50: 33.8 µM (active)
[5]
  AC50: > 70 µM (inactive)

## CCOc1cc(CN2CCCC(CNC(=O)c3ccc(F)cc3)C2)ccc1OC (stereo not drawn)
[8]
  EC50: < 0.1 µM (active)
[11]
  EC50: > 30 µM (not active)
[9]
  EC50: 0.206 µM (active)

## CC(=O)Nc1ccc(C(=O)CCl)cc1
[12]
  AC50: 28.2 µM (inconclusive)

## C[C@@H]1CN([C@H](C)CO)C(=O)c2cc(NS(=O)(=O)c3ccc(F)cc3)ccc2O[C@@H](C)CCCCO[C@H]1CN(C)Cc1ccc(C(F)(F)F)cc1
[2]
  AC50: 5.54 µM (active)
[3]
  AC50: 7.81 µM (active)
[4]
  AC50: 55.1 µM (active)
[5]
  AC50: 33.9 µM (active)

## CC(C)=CCc1c2c(c(O)c3c(=O)c(O)c(-c4ccccc4)oc13)C=CC(C)(C)O2 [SERICETIN]
[13]
  AC50: 15.8 µM (inconclusive)

## Cn1c2ccccc2c2cc(/C=N/NC(=O)c3cc(O)ccc3O)ccc21
[14]
  IC50: 15.2 µM (active)
[15]
  IC50: 4.94 µM (active)
[16]
  IC50: > 79 µM (inactive)
[17]
  IC50: 18 µM (active)
[18]
  IC50: 37.3 µM (active)
[19]
  AC50: 43.1 µM (active)

## C/N=C1/S/C(=C\c2ccc(O)c(Br)c2)C(=O)N1C
[20]
  AC50: 0.194 µM (active)
[21]
  CC50: 74.9 µM (active)
[22]
  IC50: 42 µM (active)

## CCOc1ccc(NC(=O)CNC(=O)c2nn(-c3ccc(OC)c(OC)c3)c(=O)c3ccccc23)cc1
[23]
  EC50: 6.57 µM (active)

## COc1ccc(NC(=O)N(C)C[C@H]2Oc3ccc(NC(=O)c4ccncc4)cc3C(=O)N([C@H](C)CO)C[C@@H]2C)cc1
[17]
  IC50: 27.8 µM (active)
[18]
  IC50: 40.4 µM (active)

## COc1ccc(C2CC(=O)N(CCCN(C)CCc3ccc(OC)c(OC)c3)C2)cc1 (stereo not drawn)
[8]
  EC50: < 0.1 µM (active)
[11]
  EC50: > 60 µM (not active)
[9]
  EC50: 0.02 µM (active)
